# Measurements published in patent US10710951B2, “Pharmaceutical composition containing verbenone derivative for treating or preventing neurodegenerative disease” (KOREA UNIVERSITY RESEARCH AND BUSINESS FOUNDATION, priority 2012, dated 2020).
# Key:
# [1] = Oxygen radical absorbance capacity (ORAC) assay; parameters: ORAC assay TE25 (trolox equivalents): dose or concentration left out as unconfirmed; details: for ORAC assay TE25 (trolox equivalents): net AUC sample / net AUC trolox
# Procedure: An ORAC assay was performed as disclosed in the literature (Huang, D. et al., J. Agric. Food Chem., 53, 1841-56, 2005).
# AAPH (60 mM) and fluorescein (50 nM) were prepared in buffer (75 mM phosphate buffer, pH7.4) without a sample or a sample or a standard (Trolox). Each of the samples and the standard was suspended in a solution of 7% RMCD (randomly methylated beta-cyclodextrin) in 50% acetone. RMCD was used to increase the solubility of oil-soluble samples. Each sample was sufficiently mixed with fluorescein solution (66 nM, 190 μl) by shaking for 5 seconds. After incubation at 37° C. for 10 minutes, AAPH (500 mM, 30 μl) was quickly added to each sample, and a decrease in the fluorescence was measured using a fluorescence microplate reader (Ex=485 nm, Em=530 nm; SpectraMax GeminiEM, Molecular Devices, Sunnyvale, Calif.) at 37° C. at 5-min intervals for 9 hours. To quantify the activity of scavenging peroxyl radicals, AUC (area-under-the-curve) was calculated according to the following equation 2, and net AUC was calculated according to the following equation 3, and the TE (trolox equivalents) of each sample was calculated according to the following equation 4 based on a standard curve of net AUC plotted according to an increase in trolox concentration. AUC=(0.5+f1/f0+f2/f0+f3/f0+ . . . +fn−2/f0+fn−1/f0+fn/f0)×5, Equation 2
# wherein f0 is the first fluorescence at 0 min and time I. Net AUC=AUCsample−AUCblank. Equation 3 TE(trolox equivalents) of each sample=[netAUCsample […]]/[net AUCtrolox […]]. Equation 4
# (§1) The antioxidant activities of the verbenone derivatives of the present invention were measured by the following two different chemical reactions: (1) a single electron transfer-based assay that is a […] [DPPH] assay that measures a decrease in DPPH acting as a free radical generator and a termination probe; and (2) a hydrogen atom transfer assay that is an oxygen radical absorbance capacity [[…]] assay that measures the competitive reaction kinetics of a peroxyl radical generator (AAPH; 2,2′-azobis-(2-methylpropionamide)-dihydrochloride) and each sample acting as an antioxidant for oxidizable fluorescent probe (fluorescein).
# [2] = DPPH assay (ability to scavenge nitrogen radicals); parameters: DPPH assay % inhibition: concentration or dose not given beside the values; details: relative to vitamin C (Equation 1)
# Procedure: The samples were mixed with DPPH (23.6 μg/ml, in ethanol), and incubated in dark at 37° C. for 30 minutes. The DPPH absorbance reduced by each sample was measured at 517 nm. Vitamin C (Sigma-Aldrich, St. Louis, Mo.) was used as a control, and the DPPH inhibition value (%) was calculated using the following equation: Scavenging activity (%)=[Absmax(Vit.C)−Abssample]/[Absmax(Vit.C)−Absmin(Vit.C)]×100. Equation 1
# as §1
# cortical neurons [3] = test: NMDA-induced excitotoxicity, LDH release; format: cell-based, SD rats; parameters: dose or concentration left out as unconfirmed; details: cultured cortical neuronal cells; sample 30 min before NMDA; lower than MK-801; FIG. 2
# Procedure: (§2) Cortical neurons (5×10^5 cells/ml) were isolated from fetal SD rats (16-17 days). Specifically, brain cortex was cut, and cells were isolated from the tissue by repeated trituration using a Pasteur pipette in buffer (Hanks' Balanced Salt Solution, HBSS). The cell suspension (1.8×10^3 cells/mm^2) was dispensed on a plate pretreated with poly-D-lysine ([…])/laminin ([…]). The cells were placed in 10% FBS-containing NBM medium, and incubated in a […]/5% CO2 atmosphere at 37° C. After 15-16 days of the incubation, the experiment was performed.
# After incubation on the plate for 15-18 days, the cortical neurons were exposed to NMDA ([…]) in a solution (Mg^2+-free Earle's balanced salt solution (EBSS); containing 1.8 mM CaCl2 and 10 mM glycine) for 10 minutes. After exposure, the cells were washed with MgSO4-containing EBSS solution, and incubated in 25 mmol/L glucose-containing DMEM medium in a 5% CO2 incubator at 37° C. 30 Minutes before treatment with NMDA, the cells were treated with each sample […].
# (§3) In order to measure cell injury or cell death, the amount of LDH released into the medium was measured using a cell viability measurement kit (Sigma-Aldrich, St. Louis, Mo.). Cell viability was expressed as the percentage of LDH relative to the total cellular LDH level measured in sister cultures lysed by freezing-thawing after the experiment.
# cortical neurons [4] = test: Oxygen-glucose deprivation (OGD)/reoxygenation neuronal injury, LDH release; format: cell-based; details: rat cortical neurons, FIG. 1
# Procedure: as §2
# In order to induce hypoxic-ischemic symptoms in vitro, the incubated cells were placed in an anoxic chamber (partial oxygen pressure <2 mmHg). The cells were incubated glucose-free DMEM while being bubbled with an anaerobic gas mixture (95% N2 and 5% CO2) for 30 minutes to remove residual oxygen, and were incubated at 37° C. for 90 minutes for oxygen deprivation. After 90 minutes, the exposed solution was replaced with 25 mmol/L glucose-containing DMEM medium to stop the OGD reaction, and the cells were restored to normal oxygen conditions. Control cells not exposed to OGD were incubated in glucose (25 mmol/L)-containing DMEM medium provided with an aerobic gas mixture (95% air and 5% CO2). The cells were treated with each sample 30 minutes before, and during the entire period of OGD/re-oxygenation.
# as §3
SMILES,ORAC assay Net AUC [1],ORAC assay TE25 (trolox equivalents) [1],DPPH assay % inhibition [2] [%],NMDA-induced neuronal injury (cortical neurons [3]),"neuronal injury induced by OGD (LDH release) (cortical neurons [4]; OGD/reoxygenation, comparable to MK801)",cytotoxicity (cortical neurons [4])
CC1(C)[C@@H]2C[C@H]1C(/C=C/c1ccncc1)=CC2=O [Compound 5c],22.51 ± 0.34,0.50 ± 0.01,,,,
"CC1(C)[C@@H]2C[C@H]1C(C=Cc1ccccc1)=CC2=O [Compound 4a, (1S,5R)-6,6-dimethyl-4-styrylbicyclo[3.1.1]hept-3-en-2-one]",27.73 ± 0.74,0.61 ± 0.01,,,,
"COc1ccc(C=CC2=CC(=O)[C@H]3C[C@@H]2C3(C)C)cc1 [Compound 4c, (1S,5R)-4-(4-methoxystyryl)-6,6-dimethylbicyclo[3.1.1]hept-3-en-2-one]",38.06 ± 2.00,0.79 ± 0.01,,,,
"COc1ccc(C=CC2=CC(=O)[C@H]3C[C@@H]2C3(C)C)c(O)c1 [Compound 3i, (1S,5R)-4-(2-hydroxy-4-methoxystyryl)-6,6-dimethylbicyclo[3.1.1]hept-3-en-2-one]",136.87 ± 3.24,3.05 ± 0.07,51.21 ± 3.83,significantly reduced NMDA-induced neuronal injury,,
"CC1(C)[C@@H]2C[C@H]1C(C=Cc1ccc(O)cc1)=CC2=O [Compound 3a, (1S,5R)-4-(4-hydroxystyryl)-6,6-dimethylbicyclo[3.1.1]hept-3-en-2-one]",153.98 ± 1.68,3.43 ± 0.04,19.11 ± 0.67,significantly reduced NMDA-induced neuronal injury,significantly reduced neuronal injury,showed no cytotoxicity
"COc1cc(O)cc(OC)c1C=CC1=CC(=O)[C@H]2C[C@@H]1C2(C)C [Compound 3e, (1S,5R)-4-(4-hydroxy-2,6-dimethoxystyryl)-6,6-dimethylbicyclo[3.1.1]hept-3-en-2-one]",166.26 ± 6.05,3.70 ± 0.13,55.80 ± 7.52,,,
"COc1ccc(OC)c(C=CC2=CC(=O)[C@H]3C[C@@H]2C3(C)C)c1 [Compound 4h, (1S,5R)-4-(2,5-dimethoxystyryl)-6,6-dimethylbicyclo[3.1.1]hept-3-en-2-one]",32.44 ± 1.54,0.72 ± 0.03,,,,
"CC1(C)[C@@H]2C[C@H]1C(C=Cc1ccc(-c3ccccc3)cc1)=CC2=O [Compound 4d, (1S,5R)-4-(2-(biphenyl-4-yl)vinyl)-6,6-dimethylbicyclo[3.1.1]hept-3-en-2-one]",26.75 ± 1.27,0.56 ± 0.01,,,,
"CC1(C)[C@@H]2C[C@H]1C(C=Cc1ccccc1O)=CC2=O [Compound 3h, (1S,5R)-4-(2-hydroxystyryl)-6,6-dimethylbicyclo[3.1.1]hept-3-en-2-one]",98.77 ± 2.53,2.20 ± 0.06,4.64 ± 0.60,,,
"CC1(C)[C@@H]2C[C@H]1C(/C=C/c1ccccn1)=CC2=O [Compound 5a, (1S,5R)-6,6-dimethyl-4-((E)-2-(pyridin-2-yl)vinyl)bicyclo[3.1.1]hept-3-en-2-one]",23.51 ± 0.79,0.52 ± 0.02,,significantly reduced NMDA-induced neuronal injury,,
"CC1(C)[C@@H]2C[C@H]1C(/C=C/c1cccnc1)=CC2=O [Compound 5b, (1S,5R)-6,6-dimethyl-4-((E)-2-(pyridin-3-yl)vinyl)bicyclo[3.1.1]hept-3-en-2-one]",22.93 ± 0.61,0.51 ± 0.01,,,,
"COc1cc(C=CC2=CC(=O)[C@H]3C[C@@H]2C3(C)C)cc(OC)c1 [Compound 4g, (1S,5R)-4-(3,5-dimethoxystyryl)-6,6-dimethylbicyclo[3.1.1]hept-3-en-2-one]",45.28 ± 0.62,1.01 ± 0.01,,,,
"CC1(C)[C@@H]2C[C@H]1C(C=Cc1cccc(O)c1)=CC2=O [Compound 3g, (1S,5R)-4-(3-hydroxystyryl)-6,6-dimethylbicyclo[3.1.1]hept-3-en-2-one]",73.74 ± 3.86,1.64 ± 0.09,,,,
"CC1(C)[C@@H]2C[C@H]1C(C=Cc1ccc(F)cc1)=CC2=O [Compound 4b, (1S,5R)-4-(4-fluorostyryl)-6,6-dimethylbicyclo[3.1.1]hept-3-en-2-one]",26.15 ± 1.26,0.62 ± 0.02,,,,
"COc1ccc(Br)cc1C=CC1=CC(=O)[C@H]2C[C@@H]1C2(C)C [Compound 4i, (1S,5R)-4-(5-bromo-2-methoxystyryl)-6,6-dimethylbicyclo[3.1.1]hept-3-en-2-one]",32.96 ± 1.03,0.73 ± 0.02,,,,
"COc1ccc(C=CC2=CC(=O)[C@H]3C[C@@H]2C3(C)C)cc1OC [Compound 4f, (1S,5R)-4-(3,4-dimethoxystyryl)-6,6-dimethylbicyclo[3.1.1]hept-3-en-2-one]",39.35 ± 1.67,0.88 ± 0.04,,,,
"CC1(C)[C@@H]2C[C@H]1C(C=Cc1ccc(O)c(Br)c1)=CC2=O [Compound 3d, (1S,5R)-4-(3-bromo-4-hydroxystyryl)-6,6-dimethylbicyclo[3.1.1]hept-3-en-2-one]",168.12 ± 5.24,3.74 ± 0.12,29.45 ± 2.41,,,
"COc1cc(O)ccc1C=CC1=CC(=O)[C@H]2C[C@@H]1C2(C)C [Compound 3b, (1S,5R)-4-(4-hydroxy-2-methoxystyryl)-6,6-dimethylbicyclo[3.1.1]hept-3-en-2-one]",106.48 ± 1.89,2.37 ± 0.04,38.13 ± 5.62,,,
